Reference: the NIST ThermoML archive (doi:10.1021/je0340755)

Experiment: xn = mol fraction of the nth substance listed
Conditions: 101.3 kPa, Liquid; for viscosity: Capillary tube (Ostwald / Ubbelohde) method

CC(O)C(C)O (centres undefined) [2,3-butanediol] + O
Conditions | mass density [kg/m3] | speed of sound [m/s] | viscosity [mPa·s]
298.15 K, x2 = 0.0546 | 999.76 | 1483 | 41.89
298.15 K, x2 = 0.1435 | 1001.87 | 1501.3 | 36.73
298.15 K, x2 = 0.2458 | 1004.58 | 1520.7 | 30.5
298.15 K, x2 = 0.3539 | 1007.87 | 1548.5 | 24.04
298.15 K, x2 = 0.4502 | 1011.19 | 1576.9 | 18.63
298.15 K, x2 = 0.4989 | 1013.01 | 1589.5 | 16.08
298.15 K, x2 = 0.5503 | 1014.99 | 1604.9 | 13.54
298.15 K, x2 = 0.6581 | 1019.13 | 1637.2 | 8.918
298.15 K, x2 = 0.7518 | 1021.95 | 1667.8 | 5.811
298.15 K, x2 = 0.8626 | 1021.36 | 1673.2 | 3.267
298.15 K, x2 = 0.9092 | 1017.89 | 1657.9 | 2.463
298.15 K, x2 = 0.9148 | 1017.25 | 1651.5 | 2.372
298.15 K, x2 = 0.9248 | 1015.95 | 1645.4 | 2.21
298.15 K, x2 = 0.9305 | 1015.11 | 1640.3 | 2.118
298.15 K, x2 = 0.935 | 1014.4 | – | 2.044
298.15 K, x2 = 0.9452 | 1012.61 | – | 1.878
298.15 K, x2 = 0.9542 | 1010.78 | 1616.9 | 1.729
298.15 K, x2 = 0.9703 | 1006.89 | – | 1.453
298.15 K, x2 = 0.98 | 1004.1 | – | 1.278
298.15 K, x2 = 0.9903 | 1000.7 | – | 1.083
298.15 K, x2 = 0.9925 | 999.91 | – | 1.04
298.15 K, x2 = 0.9951 | 998.95 | 1577.9 | 0.99
308.15 K, x2 = 0.0546 | 993.26 | 1446.8 | 21.57
308.15 K, x2 = 0.1435 | 995.29 | 1464.7 | 19.07
308.15 K, x2 = 0.2458 | 997.92 | 1483.6 | 16.07
308.15 K, x2 = 0.3539 | 1001.1 | 1510.7 | 12.95
308.15 K, x2 = 0.4502 | 1004.34 | 1538.4 | 10.32
308.15 K, x2 = 0.4989 | 1006.11 | 1550.7 | 9.06
308.15 K, x2 = 0.5503 | 1008.06 | 1565.8 | 7.8
308.15 K, x2 = 0.6581 | 1012.2 | 1597.3 | 5.443
308.15 K, x2 = 0.7518 | 1015.17 | 1627.1 | 3.773
308.15 K, x2 = 0.8626 | 1015.24 | 1632.4 | 2.265
308.15 K, x2 = 0.9092 | 1012.39 | 1617.5 | 1.743
308.15 K, x2 = 0.9148 | 1011.85 | 1611.2 | 1.682
308.15 K, x2 = 0.9248 | 1010.74 | 1605.3 | 1.574
308.15 K, x2 = 0.9305 | 1010.02 | 1600.3 | 1.512
308.15 K, x2 = 0.935 | 1009.4 | 1597.2 | 1.463
308.15 K, x2 = 0.9452 | 1007.83 | 1588.3 | 1.352
308.15 K, x2 = 0.9542 | 1006.24 | 1577.5 | 1.254
308.15 K, x2 = 0.9703 | 1002.81 | 1570.9 | 1.074
308.15 K, x2 = 0.98 | 1000.33 | 1557.9 | 0.962
308.15 K, x2 = 0.9903 | 997.3 | 1547.6 | 0.839
308.15 K, x2 = 0.9925 | 996.59 | 1543.9 | 0.812
308.15 K, x2 = 0.9951 | 995.73 | 1539.4 | 0.779
318.15 K, x2 = 0.0546 | 985.33 | 1418.4 | 12.04
318.15 K, x2 = 0.1435 | 987.34 | 1436 | 10.64
318.15 K, x2 = 0.2458 | 989.9 | 1454.5 | 8.953
318.15 K, x2 = 0.3539 | 993.04 | 1481.1 | 7.207
318.15 K, x2 = 0.4502 | 996.28 | 1508.2 | 5.737
318.15 K, x2 = 0.4989 | 998.08 | 1520.3 | 5.036
318.15 K, x2 = 0.5503 | 1000.07 | 1535.1 | 4.339
318.15 K, x2 = 0.6581 | 1004.28 | 1566 | 3.047
318.15 K, x2 = 0.7518 | 1007.26 | 1595.2 | 2.15
318.15 K, x2 = 0.8626 | 1007.49 | 1605.3 | 1.37
318.15 K, x2 = 0.9092 | 1005.07 | 1598.9 | 1.108
318.15 K, x2 = 0.9148 | 1004.61 | 1596.7 | 1.078
318.15 K, x2 = 0.9248 | 1003.67 | 1596.3 | 1.025
318.15 K, x2 = 0.9305 | 1003.07 | 1590.4 | 0.995
318.15 K, x2 = 0.935 | 1002.56 | 1583.1 | 0.969
318.15 K, x2 = 0.9452 | 1001.27 | 1580.2 | 0.915
318.15 K, x2 = 0.9542 | 999.96 | 1578.1 | 0.866
318.15 K, x2 = 0.9703 | 997.18 | 1571.6 | 0.775
318.15 K, x2 = 0.98 | 995.19 | 1558.5 | 0.719
318.15 K, x2 = 0.9903 | 992.79 | 1548.2 | 0.657
318.15 K, x2 = 0.9925 | 992.23 | 1544.5 | 0.644
318.15 K, x2 = 0.9951 | 991.55 | 1540 | 0.627
328.15 K, x2 = 0.0546 | 971.78 | 1397.7 | 7.267
328.15 K, x2 = 0.1435 | 973.84 | 1413.9 | 6.438
328.15 K, x2 = 0.2458 | 976.48 | 1431.2 | 5.44
328.15 K, x2 = 0.3539 | 979.73 | 1456.9 | 4.404
328.15 K, x2 = 0.4502 | 983.14 | 1482.2 | 3.532
328.15 K, x2 = 0.4989 | 985.04 | 1494.1 | 3.117
328.15 K, x2 = 0.5503 | 987.17 | 1508.7 | 2.705
328.15 K, x2 = 0.6581 | 991.86 | 1537.6 | 1.94
328.15 K, x2 = 0.7518 | 995.6 | 1567.1 | 1.412
328.15 K, x2 = 0.8626 | 997.57 | 1596.6 | 0.954
328.15 K, x2 = 0.9092 | 996.39 | 1594.5 | 0.802
328.15 K, x2 = 0.9148 | 996.11 | 1592.9 | 0.784
328.15 K, x2 = 0.9248 | 995.52 | 1590.3 | 0.753
328.15 K, x2 = 0.9305 | 995.13 | 1585.9 | 0.735
328.15 K, x2 = 0.935 | 994.78 | 1570.1 | 0.721
328.15 K, x2 = 0.9452 | 993.9 | 1574.2 | 0.689
328.15 K, x2 = 0.9542 | 992.98 | 1573 | 0.661
328.15 K, x2 = 0.9703 | 990.96 | 1570.4 | 0.607
328.15 K, x2 = 0.98 | 989.48 | 1561.6 | 0.574
328.15 K, x2 = 0.9903 | 987.67 | 1553.7 | 0.539
328.15 K, x2 = 0.9925 | 987.24 | 1551.3 | 0.531
328.15 K, x2 = 0.9951 | 986.72 | 1548.3 | 0.521
338.15 K, x2 = 0.0546 | 963.14 | 1379 | 4.899
338.15 K, x2 = 0.1435 | 965.14 | 1394.6 | 4.365
338.15 K, x2 = 0.2458 | 967.72 | 1410.6 | 3.722
338.15 K, x2 = 0.3539 | 970.91 | 1433.2 | 3.054
338.15 K, x2 = 0.4502 | 974.25 | 1457.5 | 2.49
338.15 K, x2 = 0.4989 | 976.14 | 1468.9 | 2.221
338.15 K, x2 = 0.5503 | 978.26 | 1482.2 | 1.951
338.15 K, x2 = 0.6581 | 982.97 | 1510.5 | 1.447
338.15 K, x2 = 0.7518 | 986.9 | 1540 | 1.089
338.15 K, x2 = 0.8626 | 989.57 | 1573.7 | 0.768
338.15 K, x2 = 0.9092 | 988.99 | 1577.3 | 0.656
338.15 K, x2 = 0.9148 | 988.8 | 1576 | 0.644
338.15 K, x2 = 0.9248 | 988.39 | 1576.1 | 0.621
338.15 K, x2 = 0.9305 | 988.1 | 1572.2 | 0.608
338.15 K, x2 = 0.935 | 987.85 | 1559.7 | 0.598
338.15 K, x2 = 0.9452 | 987.18 | 1564.6 | 0.573
338.15 K, x2 = 0.9542 | 986.46 | 1566.2 | 0.552
338.15 K, x2 = 0.9703 | 984.86 | 1566.1 | 0.513
338.15 K, x2 = 0.98 | 983.67 | 1561.3 | 0.49
338.15 K, x2 = 0.9903 | 982.18 | 1556.6 | 0.463
338.15 K, x2 = 0.9925 | 981.83 | 1555.4 | 0.458
338.15 K, x2 = 0.9951 | 981.4 | 1552.7 | 0.451
